Data on 15 molecules can be found in paper PMC9030932, “Development of Dibenzothiazepine Derivatives as Multifunctional Compounds for Neuropathic Pain” (Pharmaceuticals, 2022).

Where two headings read alike, the source gives them in different places. Marks after values point to notes of the source that are not given here.

Format in all cases: cell-based
Test [1] deals with human dopamine transporter (hDAT) (Homo sapiens, UniProt Q01959). The test can be described thus: Neurotransmitter transporter uptake assay, HEK-hDAT. Conditions: for inhibition at 10 µM: read-out: % Inhibition at 10 μM hDAT.
human dopamine transporter (hDAT), sequence (Q01959 whole entry): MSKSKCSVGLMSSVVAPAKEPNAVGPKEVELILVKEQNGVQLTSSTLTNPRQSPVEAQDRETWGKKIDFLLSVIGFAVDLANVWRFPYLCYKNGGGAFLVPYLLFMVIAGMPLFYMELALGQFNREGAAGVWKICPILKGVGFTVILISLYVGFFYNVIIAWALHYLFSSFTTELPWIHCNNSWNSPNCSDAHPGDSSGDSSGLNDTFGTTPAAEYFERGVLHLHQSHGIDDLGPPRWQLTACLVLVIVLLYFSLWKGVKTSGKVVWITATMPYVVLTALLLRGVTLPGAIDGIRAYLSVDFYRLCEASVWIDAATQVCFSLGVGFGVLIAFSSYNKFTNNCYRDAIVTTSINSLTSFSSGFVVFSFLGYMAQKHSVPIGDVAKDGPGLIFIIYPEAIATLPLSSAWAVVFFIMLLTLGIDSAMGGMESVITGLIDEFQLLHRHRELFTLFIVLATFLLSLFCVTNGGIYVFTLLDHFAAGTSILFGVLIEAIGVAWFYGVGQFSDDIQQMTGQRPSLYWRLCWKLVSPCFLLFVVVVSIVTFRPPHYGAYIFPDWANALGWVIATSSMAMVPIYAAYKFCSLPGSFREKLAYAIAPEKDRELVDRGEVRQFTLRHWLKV
Test [2] has as its target human serotonin transporter (hSERT) (Homo sapiens, UniProt P31645). In words: Neurotransmitter transporter uptake assay, HEK-hSERT. Conditions: for inhibition at 10 µM: read-out: % Inhibition at 10 μM hSERT.
The target of test [3] is human norepinephrine transporter (hNET) (Homo sapiens, UniProt P23975). The test can be described thus: Neurotransmitter transporter uptake assay, HEK-hNET. Conditions: read-out: % Inhibition at 10 μM hNET.
human norepinephrine transporter (hNET), sequence (P23975 whole entry): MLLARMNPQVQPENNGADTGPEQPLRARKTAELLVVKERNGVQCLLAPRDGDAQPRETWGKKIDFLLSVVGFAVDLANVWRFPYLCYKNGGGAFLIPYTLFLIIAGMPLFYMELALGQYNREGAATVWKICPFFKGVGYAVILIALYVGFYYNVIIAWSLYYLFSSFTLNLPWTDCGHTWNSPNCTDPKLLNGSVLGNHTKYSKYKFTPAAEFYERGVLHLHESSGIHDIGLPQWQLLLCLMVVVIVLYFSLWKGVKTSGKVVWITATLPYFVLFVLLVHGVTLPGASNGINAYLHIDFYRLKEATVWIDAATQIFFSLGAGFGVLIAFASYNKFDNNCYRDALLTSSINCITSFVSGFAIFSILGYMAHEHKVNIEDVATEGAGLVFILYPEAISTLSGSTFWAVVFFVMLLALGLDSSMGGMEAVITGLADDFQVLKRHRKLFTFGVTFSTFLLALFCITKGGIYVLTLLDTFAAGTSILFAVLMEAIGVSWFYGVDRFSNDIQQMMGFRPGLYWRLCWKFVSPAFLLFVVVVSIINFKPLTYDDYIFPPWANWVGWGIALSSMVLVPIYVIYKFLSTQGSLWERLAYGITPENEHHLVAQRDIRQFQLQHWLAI
Test [4] addresses T1, human κ-opioid receptor (OPRK1) (Homo sapiens, UniProt P41145).
T1 construct: host or cells: HEK293 (constitutive expression)
The test can be described thus: Intracellular calcium mobilization (FLIPR Tetra), HEK-hKOR agonism. The note with it: read-out: % Stimulation at 10 μM, OPRK1 Agonism against DynorphinA (370 nM). On the procedure:
Intracellular calcium mobilization was measured by using FLIPR Tetra System (Molecular Devices, Sunnyvale, CA, USA) in accordance with manufacturer’s instruction. […] Subsequently, the plate was transferred to the FLIPR tetra system for treating 50 μL of the 5× compounds diluted in loading buffer and reading intracellular calcium mobilization. The final concentration of DMSO was 0.1%. […] A dose response curve was generated with the changes in Relative Fluorescence Units (∆RFU) versus Log10 dose.
Experimental details for Biology
Cell culture. HEK293 cells stably expressing human DA transporter (HEK-hDAT), human NE transporter (HEK-hNET) and human serotonin transporter (HEK-hSERT) were kindly provided by Professor Bryan Roth (University of North Carolina at Chapel Hill). And HEK293 cells constitutively expressing human κ- or μ- opioid receptor (HEK-hKOR_NM000912 or HEK-hMOR_NM000914) were constructed by Professor Ki Duk Park (in Korea Institute of Science […]
Europins DiscoveRx (Fremont, CA, USA). Cells were mainta ined in Dulbecco's modified Eagle's medium (HyClone, Logan, UT, USA) supplemented with 10%(v/v) fetal bovine serum (FBS, HyClone, Logan, UT, USA), penicillin (100 U/mL), and streptomycin (100 μg/mL) in the […]
for HEK-hDAT, HEK-hNET, HEK-hSERT, HEK-hKOR and HEK-hMOR respectively) in a humidified 5% CO2 incubator at 37 °C. In case of both HEK-hKOR and HEK-hMOR, cells were additionally maintained in 0.2 mg/mL hygromycin B, 1 μg/mL puromycin B, 1× non-essential amino acids. The cells were subcultured every 3-4 days. […]

Test [5] addresses T2, human μ-opioid receptor (OPRM1) (Homo sapiens, UniProt P35372).
T2 construct: host or cells: HEK293 (constitutive expression)
The test can be described thus: Intracellular calcium mobilization (FLIPR Tetra), HEK-hMOR agonism. Conditions: for % Stimulation at 10 μM, OPRM1 Agonism against DAMGO (3.9 μM): HEK-hMOR calcium mobilization, normalized to Emax of DAMGO at 3.9 μM.

In another test the target is T3, hOPRM1 receptor (Homo sapiens, UniProt P35372).
T3 construct: host or cells: CHO-K1
T3 sequence (P35372 whole entry): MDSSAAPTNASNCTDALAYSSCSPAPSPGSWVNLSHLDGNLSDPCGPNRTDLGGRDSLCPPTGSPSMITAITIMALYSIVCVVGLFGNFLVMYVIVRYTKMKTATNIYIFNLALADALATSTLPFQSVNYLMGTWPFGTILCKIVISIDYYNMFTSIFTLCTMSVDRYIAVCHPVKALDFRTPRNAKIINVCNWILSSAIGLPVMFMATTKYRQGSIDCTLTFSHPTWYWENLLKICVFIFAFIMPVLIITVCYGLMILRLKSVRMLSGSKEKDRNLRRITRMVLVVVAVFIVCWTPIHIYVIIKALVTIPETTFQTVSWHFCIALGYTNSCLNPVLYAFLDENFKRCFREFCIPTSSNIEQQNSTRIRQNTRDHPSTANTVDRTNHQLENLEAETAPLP
In words: PathHunter CHO-K1 OPRM1 β-arrestin recruitment assay. (In general: Recruitment of arrestin is a read-out of receptor activation apart from second messengers.)

The mark [6] stands for this setting: 10 μM, HEK-hSERT, mean ± SEM, n = 3–6.
Where [7] appears, read: 10 μM, HEK-hNET, mean ± SEM, n = 3–6.

T1 sequence (P41145 whole entry): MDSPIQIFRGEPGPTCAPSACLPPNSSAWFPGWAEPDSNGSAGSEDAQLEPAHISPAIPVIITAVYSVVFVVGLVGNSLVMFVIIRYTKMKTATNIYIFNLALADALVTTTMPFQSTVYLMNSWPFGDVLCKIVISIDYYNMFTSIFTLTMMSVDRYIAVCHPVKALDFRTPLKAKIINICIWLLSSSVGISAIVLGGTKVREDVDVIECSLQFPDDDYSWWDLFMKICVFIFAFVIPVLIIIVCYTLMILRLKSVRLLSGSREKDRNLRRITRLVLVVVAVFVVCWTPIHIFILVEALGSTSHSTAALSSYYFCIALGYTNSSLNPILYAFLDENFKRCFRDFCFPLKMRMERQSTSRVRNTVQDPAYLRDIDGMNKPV
human serotonin transporter (hSERT), sequence (P31645 whole entry): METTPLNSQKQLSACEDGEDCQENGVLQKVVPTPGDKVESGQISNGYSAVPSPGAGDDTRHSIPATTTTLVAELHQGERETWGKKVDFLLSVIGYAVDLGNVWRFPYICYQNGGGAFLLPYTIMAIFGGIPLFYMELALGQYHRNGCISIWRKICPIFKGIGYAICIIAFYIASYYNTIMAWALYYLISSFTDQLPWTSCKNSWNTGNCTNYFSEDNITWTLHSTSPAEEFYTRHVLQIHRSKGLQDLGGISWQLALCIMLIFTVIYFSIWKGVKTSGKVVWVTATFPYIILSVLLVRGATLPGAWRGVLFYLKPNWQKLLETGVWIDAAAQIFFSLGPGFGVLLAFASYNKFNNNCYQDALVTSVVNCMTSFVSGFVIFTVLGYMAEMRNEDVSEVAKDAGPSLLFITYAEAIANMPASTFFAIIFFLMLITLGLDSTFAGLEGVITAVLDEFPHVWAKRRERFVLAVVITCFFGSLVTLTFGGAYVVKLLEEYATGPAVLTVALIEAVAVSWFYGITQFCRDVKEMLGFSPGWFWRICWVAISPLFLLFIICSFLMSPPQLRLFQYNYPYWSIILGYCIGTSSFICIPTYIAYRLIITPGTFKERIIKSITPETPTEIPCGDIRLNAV
T2 sequence (P35372 whole entry): as the sequence (P35372 whole entry) above

For the molecule `CN1c2ccccc2C(NCCc2c[nH]c3ccc(O)cc23)c2ccc(Cl)cc2S1(=O)=O` (centres unmarked) [Compound 7, 3-chloro-11-((2-(5-hydroxy-1H-indol-3-yl)ethyl)amino)-6-methyl-6,11-dihydrodibenzo[c,f][1,2]thiazepine 5,5-dioxide], the inhibition (usually the share of the control response that was lost under treatment) at 10 µM in test [1] was determined as 36.2 ± 2.7%; in test [2] (setting [6]), 37.5 ± 2.5%; in test [3] (setting [7]), 30.8 ± 2.8%.
Taken in the same sequence, the figures for `CN1c2ccccc2C(NCC(=O)NCCc2c[nH]c3ccc(O)cc23)c2ccc(Cl)cc2S1(=O)=O` (centres unmarked) [Compound 11a, 2-((3-chloro-6-methyl-5,5-dioxido-6,11-dihydrodibenzo[c,f][1,2]thiazepin-11-yl)amino)-N-(2-(5-hydroxy-1H-indol-3-yl)ethyl)acetamide] were 33.2 ± 6.5%, 50.9 ± 4.1% and 13.2 ± 2.3%.
As to `CN1c2ccccc2C(NCCC(=O)NCCc2c[nH]c3ccc(O)cc23)c2ccc(Cl)cc2S1(=O)=O` (centres unmarked) [Compound 11b, 3-((3-chloro-6-methyl-5,5-dioxido-6,11-dihydrodibenzo[c,f][1,2]thiazepin-11-yl)amino)-N-(2-(5-hydroxy-1H-indol-3-yl)ethyl)propanamide], the inhibition at 10 µM in test [1] was found to be 44.9 ± 4.2%; in test [3] (setting [7]), 54.8 ± 3.7%. Also, half-maximal inhibition in test [2] (IC50) required 4.08 ± 0.032 µM.
As to `CN1c2ccccc2C(NCCCC(=O)NCCc2c[nH]c3ccc(O)cc23)c2ccc(Cl)cc2S1(=O)=O` (centres unmarked) [Compound 11c, 4-((3-chloro-6-methyl-5,5-dioxido-6,11-dihydrodibenzo[c,f][1,2]thiazepin-11-yl)amino)-N-(2-(5-hydroxy-1H-indol-3-yl)ethyl)butanamide], the figures for the inhibition at 10 µM in test [1], in test [2] (setting [6]) and in test [3] (setting [7]) were 41.3 ± 5.7%, 35.5 ± 3.7% and 24.3 ± 7.4%, respectively.
As for `CN1c2ccccc2C(NCCCCC(=O)NCCc2c[nH]c3ccc(O)cc23)c2ccc(Cl)cc2S1(=O)=O` (centres unmarked) [Compound 11d, 5-((3-chloro-6-methyl-5,5-dioxido-6,11-dihydrodibenzo[c,f][1,2]thiazepin-11-yl)amino)-N-(2-(5-hydroxy-1H-indol-3-yl)ethyl)pentanamide], the figures for the inhibition at 10 µM in test [1] and in test [3] (setting [7]) were 41.3 ± 7.6% and 21.1 ± 4.7%, respectively. The 50% inhibitory concentration (IC50) (as a rule, the concentration at which inhibition is half-maximal) in test [2] (HEK-hSERT, neurotransmitter uptake, mean ± SEM, n = 3–6, read-out: IC50 hSERT) came out at 10.1 ± 0.5 µM.
On to `CN1c2ccccc2C(NCCCCCC(=O)NCCc2c[nH]c3ccc(O)cc23)c2ccc(Cl)cc2S1(=O)=O` (centres unmarked) [Compound 11e, 6-((3-chloro-6-methyl-5,5-dioxido-6,11-dihydrodibenzo[c,f][1,2]thiazepin-11-yl)amino)-N-(2-(5-hydroxy-1H-indol-3-yl)ethyl)hexanamide], for which the inhibition at 10 µM came to 40.2 ± 0.12% in test [1] and 30.1 ± 5% in test [3] (setting [7]). For the same molecule, the half-maximal inhibitory concentration (IC50) in test [2] was 6.74 ± 0.38 µM.
Regarding `COc1ccc2[nH]cc(CCNC(=O)CCCCCCNC3c4ccccc4N(C)S(=O)(=O)c4cc(Cl)ccc43)c2c1` (centres unmarked) [Compound 13, 7-((3-chloro-6-methyl-5,5-dioxido-6,11-dihydrodibenzo[c,f][1,2]thiazepin-11-yl)amino)-N-(2-(5-methoxy-1H-indol-3-yl)ethyl)heptanamide], the inhibition at 10 µM was found to be 25.6 ± 9.7% in test [1], 39.7 ± 6.3% in test [2] (setting [6]) and 23.7 ± 7.5% in test [3] (setting [7]).
`CN1c2ccccc2C(NCCCCCCC(=O)NCCc2c[nH]c3ccccc23)c2ccc(Cl)cc2S1(=O)=O` (centres unmarked) [Compound 14, N-(2-(1H-indol-3-yl)ethyl)-7-((3-chloro-6-methyl-5,5-dioxido-6,11-dihydrodibenzo[c,f][1,2]thiazepin-11-yl)amino)heptanamide]: the 50% inhibitory concentration (IC50) in test [1] worked out at 3.81 ± 1.4 µM. The inhibition at 10 µM in test [2] (setting [6]) was 50.3 ± 3.4%; in test [3] (setting [7]) it was 65.2 ± 3.4%. Besides, in test [4], the activation at 10 µM is under 10%. For the same molecule, the “% Stimulation at 10 μM, OPRM1 Agonism against DAMGO (3.9 μM)” value (shortened to “% Stimulation at 10 μM, OPRM1 Agonism”) in test [5] was 62.3 ± 2.9% ^b. Moreover, the EC50 (commonly the concentration needed to bring the measured effect to its halfway point) at hOPRM1 receptor worked out at 0.113 ± 0.003 µM.
For the molecule `CN1c2ccccc2C(NCCCCCCCC=CCc2c[nH]c3ccccc23)c2ccc(Cl)cc2S1(=O)=O` (centres unmarked) [Compound 21], the inhibition at 10 µM was 8.92 ± 6.1% in test [1], 26.3 ± 6.4% in test [2] (setting [6]) and 5.64 ± 4.5% in test [3] (setting [7]). The activation at 10 µM in test [4] is under 10%. The “% Stimulation at 10 μM, OPRM1 Agonism” value in test [5] is under 10% ^b. The same molecule had an EC50 on hOPRM1 receptor of over 10 µM.
For `CN1c2ccccc2C(NCCCCCCCCCCc2c[nH]c3ccccc23)c2ccc(Cl)cc2S1(=O)=O` (centres unmarked) [Compound 22], the inhibition at 10 µM is 1.95 ± 0.06% in test [1], 17.9 ± 7.5% in test [2] (setting [6]) and 5.56 ± 0.07% in test [3] (setting [7]). In addition, the activation at 10 µM in test [4] was under 10%. Further, the “% Stimulation at 10 μM, OPRM1 Agonism” value in test [5] amounted to 11.8 ± 1.9% ^b. The EC50 at hOPRM1 receptor is over 10 µM.
Regarding `CC(C)C[C@H](CNC(=O)CCCCCCNC1c2ccccc2N(C)S(=O)(=O)c2cc(Cl)ccc21)CC(=O)O` (stereo partly drawn) [Compound 25, (3S)-3-((7-((3-chloro-6-methyl-5,5-dioxido-6,11-dihydrodibenzo[c,f][1,2]thiazepin-11-yl)amino)heptanamido)methyl)-5-methylhexanoic acid], the inhibition at 10 µM came out at 17.6 ± 8.9% in test [1], 11.3 ± 2.5% in test [2] (setting [6]) and 21 ± 2.6% in test [3] (setting [7]). Also, the activation at 10 µM in test [4] was under 10%. Also, the results for the EC50 (in test [5]; on hOPRM1 receptor) were 2.41 ± 0.144 µM and over 10 µM, respectively.
As for `CN(CCCCCCCNC1c2ccccc2N(C)S(=O)(=O)c2cc(Cl)ccc21)CCC(Oc1ccc(C(F)(F)F)cc1)c1ccccc1` (centres unmarked) [Compound 26, 3-chloro-6-methyl-11-((7-(methyl(3-phenyl-3-(4-(trifluoromethyl)phenoxy)propyl)amino)heptyl)amino)-6,11-dihydrodibenzo[c,f][1,2]thiazepine 5,5-dioxide], the figures for the inhibition at 10 µM in test [1] and in test [3] (setting [7]) were 23.6 ± 12% and 7.07 ± 4.1%, respectively. The same molecule showed a half-maximal inhibitory concentration (IC50) in test [2] of 2.18 ± 0.37 µM. Also, the activation at 10 µM in test [4] was under 10%. Also, the “% Stimulation at 10 μM, OPRM1 Agonism” value in test [5] was under 10% ^b. At hOPRM1 receptor, the EC50 is over 10 µM.
For `CN1c2ccccc2C(NCCCCCCCNCCc2c[nH]c3ccc(C#N)cc23)c2ccc(Cl)cc2S1(=O)=O` (centres unmarked) [Compound 27, 3-(2-((7-((3-chloro-6-methyl-5,5-dioxido-6,11-dihydrodibenzo[c,f][1,2]thiazepin-11-yl)amino)heptyl)amino)ethyl)-1H-indole-5-carbonitrile], the IC50 in test [1] was found to be 4.98 ± 2.1 µM; in test [2], 0.462 ± 0.034 µM. In test [3] (setting [7]), the inhibition at 10 µM was found to be 63.6 ± 4.4%. In addition, in test [4], the activation at 10 µM was under 10%. Moreover, the “% Stimulation at 10 μM, OPRM1 Agonism” value in test [5] came out at 65.9 ± 2.8% ^b. The molecule also had an EC50 on hOPRM1 receptor of 3.28 ± 0.642 µM.
As to `Fc1ccc(C(OCCN2CCN(CCCc3ccccc3)CC2)c2ccc(F)cc2)cc1` [GBR12909, reference compound], the inhibition at 10 µM came out at 85.9 ± 0.27% in test [1], 70.6 ± 1.3% in test [2] and 79.1 ± 0.71% in test [3].
`CNCCC(Oc1ccccc1OC)c1ccccc1` (centres unmarked) [Nisoxetine, reference compound]: the values for the inhibition at 10 µM in test [1] and in test [2] were 79.7 ± 1.4% and 79.8 ± 0.32%, respectively.
